Reference: patent US10449258B2, “Antibody drug conjugate, intermediate, preparation method, pharmaceutical composition and uses thereof” (XDCEXPLORER (SHANGHAI) CO., LTD., priority 2015, dated 2019)
Read-outs that look alike come from different tables or passages of the source.

How the values were obtained:
[1] = system: human breast tumor cell strain MCF7-Her2 with stable-transfected Her2; experiment: Cytotoxicity assay (growth inhibition, CellTiter-Glo) on MCF7-Her2
Method: (§1) Her2-positive human BT474 breast tumor cells (BT474 for short), Her2 low expression human MCF-7 breast tumor cells (MCF-7 for short), and human breast tumor cell strain MCF7-Her2 with stable-transfected Her2 outside MCF-7 (MCF-7-Her2 for short) were used (they were prepared by the methods disclosed in the literatures for preparing recombinant cells: Teemu T. Junttila, et al., Breast. Cancer Res. Treat., 2011, 128, 347 and Jeffrey J. Wallin et al., Clin. Cancer Res., 2012, 18, 3901, the contents of which are incorporated herein by reference in their entireties). The growth inhibition of tumor cells by T-CE-040 and T-CE-063 antibody drug conjugates were evaluated. BT474, MCF7-Her2 and MCF-7 were digested with 0.25% (v/v) trypsin and the cells were stripped and then suspended in 100 μL complete medium. 2,000 cells were inoculated in a 96-well plate and cultured, grew adherently overnight at 37° C., then 100 μL T-CE-040 and T-CE-063 antibody drug conjugates with different concentration gradients and the complete medium were added. After 120 hours, relative cell proliferation analysis was performed by adding 50 μL CellTiter-Glo® […] Cell Activation Reagent (CellTiter-GloB Luminescent, Promega).

[2] = system: Her2 low expression human MCF-7 breast tumor cells; experiment: Cytotoxicity assay (growth inhibition, CellTiter-Glo) on MCF-7
Method: as §1

[3] = system: Her2-positive human BT474 breast tumor cells; experiment: Cytotoxicity assay (growth inhibition, CellTiter-Glo) on BT474
Method: as §1

[4] = Homo sapiens, 120 h, read-out: Cytotoxicity assay IC50 MCF-Her2, MCF7-Her2 cells, 120 hours, CellTiter-Glo
[5] = Homo sapiens, MCF7, 120 h, read-out: Cytotoxicity assay IC50 MCF7, MCF-7 cells, 120 hours, CellTiter-Glo
[6] = Homo sapiens, BT-474, 120 h, read-out: Cytotoxicity assay IC50 BT474, BT474 cells, 120 hours, CellTiter-Glo

Structure (SMILES) | IC50 [1, 4] [nM] | IC50 [2, 5] [nM] | IC50 [3, 6] [nM] | further results
COc1cc2cc(c1Cl)N(C)C(=O)C[C@H](OC(=O)[C@H](C)OCCOCCOCCOCCOCCOCCN1C(=O)C=CC1=O)[C@]1(C)O[C@H]1[C@H](C)C1C[C@@](O)(NC(=O)O1)[C@H](OC)/C=C/C=C(\C)C2 [CE-046] | 232 | 462 | 375 | –
COc1cc2cc(c1Cl)N(C)C(=O)C[C@H](OC(=O)[C@H](C)OCCOCCOCCN1C(=O)C=CC1=O)[C@]1(C)O[C@H]1[C@H](C)C1C[C@@](O)(NC(=O)O1)[C@H](OC)/C=C/C=C(\C)C2 [CE-047] | 134 | 327 | 325 | –
COc1cc2cc(c1Cl)N(C)C(=O)C[C@H](OC(=O)COCCCSC1CC(=O)N(C[C@H]3CC[C@H](C(=O)ON4C(=O)CCC4=O)CC3)C1=O)[C@]1(C)O[C@H]1[C@H](C)C1C[C@@](O)(NC(=O)O1)[C@H](OC)/C=C/C=C(\C)C2 (stereo partly drawn) [CE-048] | 72.1 | 171 | 266 | –
COc1cc2cc(c1Cl)N(C)C(=O)C[C@H](OC(=O)C(C)(C)OCCCSC1CC(=O)N(C[C@H]3CC[C@H](C(=O)ON4C(=O)CCC4=O)CC3)C1=O)[C@]1(C)O[C@H]1[C@H](C)C1C[C@@](O)(NC(=O)O1)[C@H](OC)/C=C/C=C(\C)C2 (stereo partly drawn) [CE-049] | 139 | 207 | 138 | –
COc1cc2cc(c1Cl)N(C)C(=O)C[C@H](OC(=O)[C@H](C)OCCOCCOCCNC(=O)CBr)[C@]1(C)O[C@H]1[C@H](C)C1C[C@@](O)(NC(=O)O1)[C@H](OC)/C=C/C=C(\C)C2 [CE-050] | 7 | 14.4 | 26.1 | –
COc1cc2cc(c1Cl)N(C)C(=O)C[C@H](OC(=O)[C@H](C)OCCCSC1CC(=O)N(C[C@H]3CC[C@H](C(=O)ON4C(=O)CCC4=O)CC3)C1=O)[C@]1(C)O[C@H]1[C@H](C)C1C[C@@](O)(NC(=O)O1)[C@H](OC)/C=C/C=C(\C)C2 (stereo partly drawn) [CE-051] | – | – | – | IC50 ([1]; read-out: Cytotoxicity assay IC50 MCF-Her2, MCF7-Her2 cells, 120 hours, CellTiter-Glo): 51.4 nM; IC50 ([2]; read-out: Cytotoxicity assay IC50 MCF7, MCF-7 cells, 120 hours, CellTiter-Glo): 119 nM; IC50 ([3]; read-out: Cytotoxicity assay IC50 BT474, BT474 cells, 120 hours, CellTiter-Glo): 112 nM
COc1cc2cc(c1Cl)N(C)C(=O)C[C@H](OC(=O)[C@H](C)OCCOCCOCCOCCOCCOCCNC(=O)CBr)[C@]1(C)O[C@H]1[C@H](C)C1C[C@@](O)(NC(=O)O1)[C@H](OC)/C=C/C=C(\C)C2 [CE-052a] | 9.8 | 18.4 | 33.1 | –
COc1cc2cc(c1Cl)N(C)C(=O)C[C@H](OC(=O)C1CCC(CSSC)OC1)[C@]1(C)O[C@H]1[C@H](C)C1C[C@@](O)(NC(=O)O1)[C@H](OC)/C=C/C=C(\C)C2 (stereo partly drawn) [CE-053-1] | 13 | 22 | 22 | –
COc1cc2cc(c1Cl)N(C)C(=O)C[C@H](OC(=O)C(COCCSSC)OC)[C@]1(C)O[C@H]1[C@H](C)C1C[C@@](O)(NC(=O)O1)[C@H](OC)/C=C/C=C(\C)C2 (stereo partly drawn) [CE-056] | 217 | 17 | 39 | –
COc1cc2cc(c1Cl)N(C)C(=O)C[C@H](OC(=O)[C@@H](C)N(C)C(=O)CCS)C1(C)O[C@H]1[C@H](C)C1C[C@@](O)(NC(=O)O1)[C@H](OC)/C=C/C=C(\C)C2 (stereo partly drawn) [DM1, N2′-deacetyl-N2′-(3-mercapto-1-oxopropyl)maytansine, reference compound] | 14 | 16 | 21 | –
COc1cc2cc(c1Cl)N(C)C(=O)C[C@H](OC(=O)[C@@H](C)N(C)C(=O)CCSSC)C1(C)O[C@H]1[C@H](C)C1C[C@@](O)(NC(=O)O1)[C@H](OC)/C=C/C=C(\C)C2 (stereo partly drawn) [DM1-SMe, reference compound] | – | – | – | IC50 ([1]; Homo sapiens, 120 h, read-out: Cytotoxicity assay IC50 MCF-Her2): 7.3 nM; IC50 ([2]; Homo sapiens, MCF7, 120 h, read-out: Cytotoxicity assay IC50 MCF7): 9.5 nM; IC50 ([3]; Homo sapiens, BT-474, 120 h, read-out: Cytotoxicity assay IC50 BT474): 9.3 nM
COc1cc2cc(c1Cl)N(C)C(=O)C[C@H](OC(=O)[C@H](C)OCCOCCSC1CC(=O)N(CCC(=O)NCCOCCOCCC(=O)ON3C(=O)CCC3=O)C1=O)[C@]1(C)O[C@H]1[C@H](C)C1C[C@@](O)(NC(=O)O1)[C@H](OC)/C=C/C=C(\C)C2 (stereo partly drawn) [XDCE-M-001] | 182 | 330 | 456 | –
COc1cc2cc(c1Cl)N(C)C(=O)C[C@H](OC(=O)[C@H](C)OCCOCCSC1CC(=O)N(CCC(=O)NCCOCCOCCOCCC(=O)ON3C(=O)CCC3=O)C1=O)[C@]1(C)O[C@H]1[C@H](C)C1C[C@@](O)(NC(=O)O1)[C@H](OC)/C=C/C=C(\C)C2 (stereo partly drawn) [XDCE-M-002] | 64.3 | 51.5 | 41.6 | –
